Counter-ions that a name gives are not always drawn. Like-named read-outs stand apart in the source and are kept apart here.
Tests used:
[1] = Effect of cross-linking UV irradiation on vitamin B12 absorbance; type: physicochemical; settings: 10 mW/cm^2 long-wave UV 5 minutes, with photo-initiator, in ethyl acetate or non-acrylated polymer solution
Procedure: As vitamin B12 absorbs within the UV region, it was important to determine whether the cross-linking conditions affected the vitamin B12. The vitamin B12 was therefore suspended in ethyl acetate in the presence of the photo-initiator, and in a non-acrylated polymer solution also containing the photo-initiator, and subjected to 10 mW/cm^2 long-wave UV irradiation for 5 minutes. The vitamin B12 was then filtered from solution, dried, and dissolved in varying concentrations and their absorbance measured and compared to that of solutions prepared from the as-received vitamin B12.

[2] = Diffusivity by Pulsed Field Gradient Nuclear Magnetic Resonance; type: physicochemical; settings: 37° C.
Procedure: Goserelin acetate and vitamin B12 were incorporated into cylindrical polymer matrices as described in Example 2, but using only PEGD 24000 g/mol. Goserelin acetate is a peptide having the sequence Pyr-His-Trp-Ser-Tyr-D-Ser(tBu)-Leu-Arg-Pro-Azagly-NH2 acetate salt. Its molecular weight is 1269 g/mol and it has a water solubility of 20 mg/mL at 25° C. […] The diffusivities of these two compounds was determined at 37° C. using Pulsed Field Gradient Nuclear Magnetic Resonance. The measured diffusivities were 2.8±0.1 and 2.6±0.1 (10^−6) cm^2/s for vitamin B12 and goserelin, respectively. These diffusivities are essentially the same. In vitro release experiments on these cylinders were performed as described in Example 2. […] As the diffusivities of the two compounds are very similar, and degradation of the polymer occurs slowly, release cannot be controlled by either diffusion or polymer degradation. The higher release rate must therefore be a result of the higher aqueous solubility of the goserelin acetate. Thus, release is driven by the dissolution rate of the compound in the aqueous regions of the polymer matrix.

[3] = cited from earlier work
[4] = In vitro release of goserelin acetate and vitamin B12 from ASCP 2700 / PEGD 24000 cylinders; type: physicochemical; settings: 90% ASCP 2700 and 10% PEGD 24000 cylinders, loading 1 w/w %
From the text: Acrylated star-poly(ε-caprolactone-co-D,L-lactide) (ASCP) of molecular weight 2700 g/mol was co-dissolved in tetrahydrofuran with poly(ethylene glycol)diacrylate (PEGD) of molecular weight 4000 g/mol or 24000 g/mol. The total polymer concentration was 1 g/mL THF. The mass ratio of PEGD:ASCP was 1:9 (10% PEGD). In this solution was suspended vitamin B12 particles that had been ground and sieved to less than 100 μm in diameter. The total mass of vitamin B12 to polymer was 1:99 (1% vitamin B12). 1.5 w/w % of 2,2-dimethoxy-2-phenyl-acetophenone (DMPA) photoinitiator was also included. The suspension was injected into a 1.8 mm diameter glass tube to a length of 34 cm and sealed with parafilm. […] The concentration of vitamin B12 in the release samples was measured with a Spectromax microplate spectrophotometer. 0.250 mL of vitamin B12 sample per well was added into a 96 well microplate, and the absorbance of these samples was read at 381 nm. […]
Goserelin acetate and vitamin B12 were incorporated into cylindrical polymer matrices as described in Example 2, but using only PEGD 24000 g/mol. […] The diffusivities of these two compounds was determined at 37° C. using Pulsed Field Gradient Nuclear Magnetic Resonance. The measured diffusivities were 2.8±0.1 and 2.6±0.1 (10^−6) cm^2/s for vitamin B12 and goserelin, respectively. […]

Row | change in the absorbance of the vitamin B12 due to cross-linking conditions [1] | Molecule | diffusivity [2] | water solubility ([3]; temperature not given) [mg/mL] | water solubility ([3]; 25° C.) [mg/mL] | release rate compared with vitamin B12 (in words) [4]
1 | no significant change | vitamin B12 | 2.8±0.1 (10^−6) cm^2/s | 12.5 | – | –
2 | – | CC(C)C[C@H](NC(=O)[C@@H](COC(C)(C)C)NC(=O)[C@H](Cc1ccc(O)cc1)NC(=O)[C@H](CO)NC(=O)[C@H](Cc1c[nH]c2ccccc12)NC(=O)[C@H](Cc1cnc[nH]1)NC(=O)[C@@H]1CCC(=O)N1)C(=O)N[C@@H](CCCNC(=N)N)C(=O)N1CCC[C@H]1C(=O)NNC(N)=O [Goserelin acetate, Pyr-His-Trp-Ser-Tyr-D-Ser(tBu)-Leu-Arg-Pro-Azagly-NH2 acetate salt] | 2.6±0.1 (10^−6) cm^2/s | – | 20 | appreciably faster rate

From patent US20060233857A1, “Degradable elastomeric network” (priority 2005, published 2006)
